Entries after “also recorded” stand apart in the source; their conditions may differ.
Tests used:
[1] = test system: tail-irradiated C57BL/6 mice; test: Straub Tail scoring in tail-irradiated mice; assay type: in vivo; details: 10 mg/kg ip after the 17th tail irradiation (5 Gy/day); rescored 20 minutes after injection
Experimental: To obtain the data shown in FIG. 3C, after the 17th irradiation dose, the mice were measured for Straub Tail scores and the irradiated mice were divided into two subgroups. The first subgroup was injected with 10 mg/kg naloxone ip. The second subgroup was injected with saline ip. Straub Tail scores were then rescored 20 minutes after the injection. FIG. 3C uses data obtained by Wild type female mice. […] The saline injection has no effect on the Straub Tail phenotype.
Mice undergoing tail radiation or mock treatment were assessed for Straub Tail according to a slightly modified method of Zarrindast, M. R., Ghadimi, M., Ramezani-Tehrani, B., and Sahebgharani, M. Effect of GABA Receptor Agonists or Antagonists on Morphine-induced Straub Tail in Mice. […] 2006; 116(8): 963-73, by which Straub tail is scored on a scale of 0-2 according to the angle of elevation of the tail from the horizontal plane (0=tail relaxed and no elevation; 1=tail is rigid and slightly elevation 1-10° from horizontal; 1.5=11-45 degree elevation with rigidity at the base of the tail; 2=46-90° elevation with rigidity at the base of the tail). For each measurement, each mouse is scored every 10 seconds for 1 minute, and the final score for each mouse at a given measurement point is the average of these 7 values. […] After the 17th irradiation, all mice were scored as described above immediately following tail radiation. […]

[2] = test system: chronically UV-irradiated mice; test: naloxone-induced somatic symptoms of opiate withdrawal after chronic UVB exposure; assay type: in vivo; details: UVB 50 mJ/cm^2/day for 6 weeks, 2 mg/kg sc, counted over 25 minutes
Experimental: To obtain the data shown in FIG. 9, mice were either exposed to 50 mJ/cm^2/day UVB radiation, or mock-exposed 5 days per week for 6 weeks. These two groups of mice were divided into subgroups and either injected with a dose of 2 mg/kg naloxone(sc) or saline. […] The symptoms observed include wet dog shake, paw tremor, jumping, grooming, teeth chatter, rearing and diarrhea.
This example assesses physical dependence to opiate agents by evaluating withdrawal symptoms in mice upon acute administration of an opiate antagonist. In mice, symptoms of opiate withdrawal include shaking vigorously (called a “wet-dog shake”), paw tremors, teeth chattering, jumping, rearing, increased grooming, and diarrhea. The occurrence of these symptoms were measured in mice either exposed to 50 mJ/cm^2/day UVB radiation 5 days per week for 6 weeks or mock-exposed on the same schedule. One subgroup of each group of mice was injected with 2 mg/kg subcutaneous naloxone and number of occurrences of each of the above-mentioned symptoms was counted over 25 minutes immediately following naloxone injection. The other subgroup was administered a subcutaneous injection of saline before the 25-minute observation period.

C=CCN1CC[C@]23c4c5ccc(O)c4O[C@H]2C(=O)CC[C@@]3(O)[C@H]1C5 [naloxone]
effect on Straub Tail score [1]: abolished to near mock-treated levels; also recorded: reversed the Straub Tail, similar to mock-treated levels
jumping behavior [2]: only group to show any jumping behavior at all
occurrences of wet dog shakes, teeth chattering, paw tremoring, grooming and rearing ([2]; compared to all other groups): significantly more

From patent publication US20120149724A1, “MODULATING ENDOGENOUS BETA-ENDORPHIN LEVELS” (THE GENERAL HOSPITAL CORPORATION, priority 2009, published 2012)
